What was measured:
[1] = tested on: Yarrowia lipolytica (DSM 32369); experiment: Synergy test: minimum inhibitory concentrations in microtiter plates, Yarrowia lipolytica in Sabouraud Maltose broth; settings: 48 hours at 25° C.; for Synergy index Qa/QA + Qb/QB: below 1 = synergism; for Qa (CMIT) / Qa (CMIT): concentration of CMIT indicating an end point: as sole agent (QA) where Qb is 0
Description: The test organisms used were the Gram-negative bacterium Pseudomonas putida (DSM 25068) and the yeast fungus Yarrowia lipolytica (DSM 32369). For this, mixtures with different concentrations of the particular active substances were prepared and tested in regard to their effect on Pseudomonas putida and Yarrowia lipolytica. The testing was done in Milller-Hinton broth MHB (in the case of Pseudomonas) or Sabouraud Maltose broth SMB (in the case of Yarrowia) with a cell density of 10^6 germs per ml.
The incubation time of the microtiter plates was 48 hours at 30° C. (Pseudomonas) or 25° C. (Yarrowia). After 48 hours the batches were evaluated for turbidity due to growth and, in addition, the optical density was determined by photometry. In this way, the minimum inhibitory concentrations (MHK) were determined for the two active substances individually and in combination.
The resulting synergism was represented numerically by calculating the synergy index (SI). […] There, the SI is calculated by the following formula: synergy index SI =Qa/QA +Qb/QB
Qa =concentration of component A in the mixture A+B
Qb =concentration of component B in the mixture A+B
If the synergy index has a value over 1, this means that an antagonism is present. If the synergy index takes on the value 1, this means that an addition of the effect of the two biocides/compounds is present. If the synergy index takes on a value below 1, this means that a synergism exists for the two biocides. If the synergy index has a value of more than 1, this means that an antagonism exists.

[2] = tested on: Pseudomonas putida (DSM 25068); experiment: Synergy test: minimum inhibitory concentrations in microtiter plates, Pseudomonas putida in Mueller-Hinton broth; format: cell-based; settings: 48 hours at 30° C.; for Synergy index Qa/QA + Qb/QB: below 1 = synergism; for Qa (CMIT): concentration of CMIT indicating an end point / Qa (CIT): concentration of CMIT indicating an end point: as sole agent (QA) where Qb is 0
Description: (Pseudomonas) or 25° C. (Yarrowia).
Kull et al., Applied Microbiology, Vol. 9 (1961), p. 538.
QA =concentration of component A as sole biocide
QB =concentration of component B as sole biocide

[3] = in the mixture with CMIT, as sole agent (QB) where Qa is 0

Molecule: CCCCn1sc2ccccc2c1=O [BBIT, N-butyl-benzisothiazolinone]
- Synergy index Qa/QA + Qb/QB ([1]; CMIT and BBIT): 1.00
- Qb (BBIT): concentration of BBIT indicating an end point [1, 3]: 3.00 ppm
- Synergy index Qa/QA + Qb/QB ([2]; CMIT and BBIT): 1.00
- Qb (BBIT): concentration of BBIT indicating an end point [2, 3]: 20 ppm

Molecule: Cn1sc(Cl)cc1=O [CMIT, 5-chloro-2-methylisothiazolin-3-one]
- Synergy index Qa/QA + Qb/QB ([1]; CMIT and BBIT): 1.00
- Synergy index Qa/QA + Qb/QB ([1]; CMIT and IPBC): 1.00
- Synergy index Qa/QA + Qb/QB ([1]; CMIT and OIT): 1.00
- Synergy index Qa/QA + Qb/QB ([1]; CMIT and dehydracetic acid): 1.00
- Synergy index Qa/QA + Qb/QB ([1]; CMIT and salicylic acid): 1.00
- Synergy index Qa/QA + Qb/QB ([1]; CMIT and sorbic acid): 1.00
- Qa (CMIT) ([1]; in the mixture with BBIT): 2.50 ppm
- Qa (CMIT) ([1]; in the mixture with IPBC): 2.50 ppm
- Qa (CMIT) ([1]; in the mixture with OIT): 2.50 ppm
- Qa (CMIT): concentration of CMIT indicating an end point ([1]; in the mixture with benzoic acid): 2.5 ppm
- Qa (CMIT): concentration of CMIT indicating an end point ([1]; in the mixture with dehydracetic acid): 2.5 ppm
- Qa (CMIT): concentration of CMIT indicating an end point ([1]; in the mixture with salicylic acid): 2.5 ppm
- Qa (CMIT): concentration of CMIT indicating an end point ([1]; in the mixture with sorbic acid): 2.5 ppm
- Synergy index Qa/QA + Qb/QB ([2]; CMIT and BAC): 1.00
- Synergy index Qa/QA + Qb/QB ([2]; CMIT and BBIT): 1.00
- Synergy index Qa/QA + Qb/QB ([2]; CMIT and DDAC): 1.00
- Synergy index Qa/QA + Qb/QB ([2]; CMIT and EDDS): 1.00
- Synergy index Qa/QA + Qb/QB ([2]; CMIT and GDA): 1.00
- Synergy index Qa/QA + Qb/QB ([2]; CMIT and HCHO): 1.00
- Synergy index Qa/QA + Qb/QB ([2]; CMIT and HEDP): 1.00
- Synergy index Qa/QA + Qb/QB ([2]; CMIT and IPBC): 1.00
- Synergy index Qa/QA + Qb/QB ([2]; CMIT and OIT): 1.00
- Synergy index Qa/QA + Qb/QB ([2]; CMIT and PASP Na salt): 1.00
- Synergy index Qa/QA + Qb/QB ([2]; CMIT and ethylparaben): 1.00
- Synergy index Qa/QA + Qb/QB ([2]; CMIT and methylparaben): 1.00
- Synergy index Qa/QA + Qb/QB ([2]; CMIT and phenetyl alcohol): 1.00
- Qa (CMIT): concentration of CMIT indicating an end point ([2]; in the mixture with BAC): 2 ppm
- Qa (CIT): concentration of CMIT indicating an end point ([2]; in the mixture with BBIT): 2 ppm
- Qa (CMIT): concentration of CMIT indicating an end point ([2]; in the mixture with DDAC): 2 ppm
- Qa (CMIT): concentration of CMIT indicating an end point ([2]; in the mixture with EDDS): 2 ppm
- Qa (CMIT): concentration of CMIT indicating an end point ([2]; in the mixture with GDA): 2 ppm
- Qa (CMIT): concentration of CMIT indicating an end point ([2]; in the mixture with HCHO): 2 ppm
- Qa (CMIT): concentration of CMIT indicating an end point ([2]; in the mixture with HEDP): 2 ppm
- Qa (CIT): concentration of CMIT indicating an end point ([2]; in the mixture with IPBC): 2 ppm
- Qa (CIT): concentration of CMIT indicating an end point ([2]; in the mixture with OIT): 2 ppm
- Qa (CMIT): concentration of CMIT indicating an end point ([2]; in the mixture with PASP Na salt): 2 ppm
- Qa (CMIT): concentration of CMIT indicating an end point ([2]; in the mixture with ethylparaben): 2 ppm
- Qa (CMIT): concentration of CMIT indicating an end point ([2]; in the mixture with methylparaben): 2 ppm
- Qa (CMIT): concentration of CMIT indicating an end point ([2]; in the mixture with phenetyl alcohol): 2 ppm

Molecule: CCCCCCCCCC[N+](C)(C)CCCCCCCCCC.[Cl-] [DDAC, didecyldimethylammonium chloride]
- Synergy index Qa/QA + Qb/QB ([2]; CMIT and DDAC): 1.00
- Qb (DDAC): concentration of DDAC indicating an end point [2, 3]: 7.5 ppm

Molecule: O=CCCCC=O [GDA, glutardialdehyde]
- Synergy index Qa/QA + Qb/QB ([2]; CMIT and GDA): 1.00
- Qb (GDA): concentration of GDA indicating an end point [2, 3]: 500 ppm

Molecule: C=O [HCHO, formaldehyde]
- Synergy index Qa/QA + Qb/QB ([2]; CMIT and HCHO): 1.00
- Qb (HCHO): concentration of HCHO indicating an end point [2, 3]: 500 ppm

Molecule: CC(O)(P(=O)(O)O)P(=O)(O)O [HEDP, (1-hydroxyethylidene)bis-phosphonic acid]
- Synergy index Qa/QA + Qb/QB ([2]; CMIT and HEDP): 1.00
- Qb (HEDP): concentration of HEDP indicating an end point [2, 3]: 250 ppm

Molecule: CCCCNC(=O)OCC#CI [IPBC, 3-iodo-2-propynyl butylcarbamate]
- Synergy index Qa/QA + Qb/QB ([1]; CMIT and IPBC): 1.00
- Qb (IPBC): concentration of IPBC indicating an end point [1, 3]: 2.50 ppm
- Synergy index Qa/QA + Qb/QB ([2]; CMIT and IPBC): 1.00
- Qb (IPBC): concentration of IPBC indicating an end point [2, 3]: 1000 ppm

Molecule: CCCCCCCCn1sccc1=O [OIT, octylisothiazolinone]
- Synergy index Qa/QA + Qb/QB ([1]; CMIT and OIT): 1.00
- Qb (OIT): concentration of OIT indicating an end point [1, 3]: 2.00 ppm
- Synergy index Qa/QA + Qb/QB ([2]; CMIT and OIT): 1.00
- Qb (OIT): concentration of OIT indicating an end point [2, 3]: 300 ppm

Molecule: O=C(O)c1ccccc1 [benzoic acid]
- Qb (benzoic acid): concentration of benzoic acid indicating an end point [1, 3]: 2500 ppm

Molecule: CC(=O)C1C(=O)C=C(C)OC1=O (centres unmarked) [dehydracetic acid]
- Synergy index Qa/QA + Qb/QB ([1]; CMIT and dehydracetic acid): 1.00
- Qb (dehydracetic acid): concentration of dehydracetic acid indicating an end point [1, 3]: 200 ppm

Molecule: CCOC(=O)c1ccc(O)cc1 [ethylparaben]
- Synergy index Qa/QA + Qb/QB ([2]; CMIT and ethylparaben): 1.00
- Qb (ethylparaben): concentration of ethylparaben indicating an end point [2, 3]: 1500 ppm

Molecule: COC(=O)c1ccc(O)cc1 [methylparaben]
- Synergy index Qa/QA + Qb/QB ([2]; CMIT and methylparaben): 1.00
- Qb (methylparaben): concentration of methylparaben indicating an end point [2, 3]: 2000 ppm

Molecule: OCCc1ccccc1 [phenetyl alcohol]
- Synergy index Qa/QA + Qb/QB ([2]; CMIT and phenetyl alcohol): 1.00
- Qb (phenetyl alcohol): concentration of phenetyl alcohol indicating an end point [2, 3]: 3000 ppm

Molecule: O=C(O)c1ccccc1O [salicylic acid]
- Synergy index Qa/QA + Qb/QB ([1]; CMIT and salicylic acid): 1.00
- Qb (salicylic acid): concentration of salicylic acid indicating an end point [1, 3]: 3000 ppm

Molecule: C/C=C/C=C/C(=O)O [sorbic acid]
- Synergy index Qa/QA + Qb/QB ([1]; CMIT and sorbic acid): 1.00
- Qb (sorbic acid): concentration of sorbic acid indicating an end point [1, 3]: 750 ppm

Molecule: benzalkonium chloride [BAC]
- Synergy index Qa/QA + Qb/QB ([2]; CMIT and BAC): 1.00
- Qb (BAC): concentration of BAC indicating an end point [2, 3]: 30 ppm

From patent US20200068891A1, “Synergetic Biocidal Compositions Comprising 5-Chlorine-2-Methylisothiazolin-3-One” (priority 2017, published 2020)
